Assay results from EP0326329B1, “Quinazoline derivatives useful as insecticides” (Dow AgroSciences LLC, priority 1988, dated 1989).

Legend:
Assay type in all cases: in vivo
[1] = tested on: Venturia inaequalis (apple scab); assay: Greenhouse Test 1, foliar spray fungicide screen (APPL SCAB), host apple seedling; details: disease control rating, 400 ppm (+++ at 100 ppm)
[2] = tested on: Botrytis cinerea (gray mold); assay: Greenhouse Test 1, foliar spray fungicide screen (GRAY MOLD), host grape berries; details: disease control rating, 400 ppm (+++ at 100 ppm)
[3] = tested on: Plasmopara viticola; assay: Fungicide field tests; details: crop: grape
Source text: Selected compounds were field tested on various crops against a variety of pathogens. […]

[4] = tested on: Septoria tritici (leaf blotch); assay: Greenhouse Test 1, foliar spray fungicide screen (LEAF BLOT), host wheat; details: disease control rating, 400 ppm (+++ at 100 ppm)
[5] = tested on: Twospotted spider mites (Tetranychus urticae Koch); assay: Mite/insect screen, sprayed squash cotyledons (SM); details: Tetranychus urticae, percent mortality, read-out: SM RESULTS %; for mortality at 200 ppm: spray rate 200 ppm; for mortality at 400 ppm: spray rate 400 ppm
How it was run: (§1)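 Mortality and phytotoxicity read after standard exposure periods on sprayed squash: cotyledons for melon aphids and twospotted spider mites, excised leaves placed with southern armyworm larvae. Spray solutions were water dilutions of acetone/alcohol stocks containing TOXIMUL R and S emulsifiers, applied to runoff at 10 psi and air-dried one hour.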

[6] = tested on: Pseudoperonospora cubensis (downy mildew); assay: Greenhouse Test 1, foliar spray fungicide screen (DOWN MDEW), host squash; details: disease control rating, 400 ppm (+++ at 100 ppm)
[7] = tested on: Phytophthora infestans; details: crop: potato
[8] = tested on: Southern corn rootworm (Diabrotica undecimpuctata howardi Barber); assay: Mite/insect screen, soil treatment (CRW); details: Diabrotica, percent mortality, soil treatment, read-out: CRW RESULTS %; for mortality at 12 ppm: CRW rate 12.00 ppm; for mortality at 24 ppm: CRW rate 24.00 ppm
How it was run: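 Five 2–3 instar larvae were placed on dry sandy soil with a presoaked corn seed after the soil had received 1 mL of compound solution and dried 6–12 h; cups were kept capped at 23°C. Mortality (%) and phytotoxicity were read after standard exposure. Formulation: acetone/alcohol with emulsifiers, water-diluted.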

[9] = tested on: melon aphids (Aphis gossypii Glover); assay: Mite/insect screen, sprayed squash cotyledons (MA); details: Aphis gossypii, percent mortality, read-out: MA RESULTS %; for mortality at 200 ppm: spray rate 200 ppm; for mortality at 400 ppm: spray rate 400 ppm
How it was run: as §1

[10] = tested on: southern armyworm (Spodopetra eridania Cramer); assay: Mite/insect screen, sprayed squash leaves (SAW); details: Spodoptera eridania, percent mortality, read-out: SAW RESULTS %; for mortality at 200 ppm: spray rate 200 ppm; for mortality at 400 ppm: spray rate 400 ppm
How it was run: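 Water-diluted formulations of each compound (acetone/alcohol 50:50 with 23 g/L and 13 g/L emulsifier blends) are sprayed over both leaf faces to runoff. After a standard exposure period, percent kill and phytotoxicity are recorded.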

[11] = tested on: Erysiphe graminis tritici (powdery mildew); assay: Greenhouse Test 1, foliar spray fungicide screen (POWD MDEW), host wheat; details: disease control rating, 400 ppm (+++ at 100 ppm)
[12] = tested on: Puccinia recondita tritici (leaf rust); assay: Greenhouse Test 1, foliar spray fungicide screen (LEAF RUST), host wheat; details: disease control rating, 400 ppm (+++ at 100 ppm)
[13] = tested on: Pyricularia oryzae (rice blast); details: disease control rating, foliar spray, host rice; 400 ppm (+++ at 100 ppm)
[14] = tested on: Cercospora beticola (leaf spot); assay: Greenhouse Test 1, foliar spray fungicide screen (LEAF SPOT), host sugar beet; details: disease control rating, 400 ppm (+++ at 100 ppm)
[15] = tested on: pea aphid; assay: Mite and insect field trials
Description: (§2) 4-[2-[4-(t-butyl)phenyl]ethoxy]quinazoline and 4-[2-(1,1'-biphenyl)-4 biphenyl)-4-ylethoxy]quinazoline were evaluated against a variety of mite and insect species in field trials.

[16] = tested on: apple aphid; assay: Mite and insect field trials; details: plant: apples
Description: as §2

[17] = tested on: grape thrips; assay: Mite and insect field trials; details: plant: grape (European)
Description: as §2

[18] = tested on: rosy apple aphid; assay: Mite and insect field trials; details: plant: apples
Description: as §2

[19] = tested on: green peach aphid; assay: Mite and insect field trials
Description: as §2

[20] = tested on: apple rust mite; assay: Mite and insect field trials; details: plant: apples
Description: as §2

[21] = tested on: wheat aphid; assay: Mite and insect field trials; details: plant: wheat
Description: as §2

[22] = tested on: Dawson-hop aphid; assay: Mite and insect field trials; details: plant: hops
Description: as §2

[23] = tested on: green cloverworm; assay: Mite and insect field trials; details: plant: alfalfa (Lucerne)
Description: as §2

[24] = tested on: European red mite; assay: Mite and insect field trials; details: plant: apples
Description: as §2

[25] = tested on: potato leafhopper; assay: Mite and insect field trials; details: plant: alfalfa (Lucerne)
Description: as §2

[26] = tested on: yellow hickory aphid; assay: Mite and insect field trials; details: plant: pecan nut
Description: as §2

[27] = tested on: greenhouse thrips; assay: Mite and insect field trials; details: plant: azaleas
Description: as §2

[28] = tested on: black citrus aphid; assay: Mite and insect field trials; details: plant: lemon
Description: as §2

[29] = tested on: thrips; assay: Mite and insect field trials; details: plant: privet
Description: as §2

[30] = tested on: twospotted spider mite; assay: Mite and insect field trials
Description: as §2

[31] = tested on: cotton aphid; assay: Mite and insect field trials; details: plant: cotton
Description: as §2

[32] = tested on: cereal aphid; assay: Mite and insect field trials; details: plant: barley
Description: as §2

[33] = tested on: bean aphid; assay: Mite and insect field trials; details: plant: bean, faba broad
Description: as §2

[34] = tested on: potato aphid; assay: Mite and insect field trials; details: plant: turnip
Description: as §2

[35] = tested on: white apple leafhopper; assay: Mite and insect field trials; details: plant: apples
Description: as §2

[36] = tested on: glasshouse whitefly; assay: Mite and insect field trials; details: tested on tomato
Description: as §2

[37] = tested on: grape leafhopper; assay: Mite and insect field trials; details: plant: grape (European)
Description: as §2

[38] = tested on: tarnished plant bug; assay: Mite and insect field trials; details: plant: alfalfa (Lucerne)
Description: as §2

Clc1ccc(CCOc2ncnc3ccccc23)cc1 [Example 5, 4-[2-(4-chlorophenyl)ethoxy]quinazoline]
APPL SCAB [1]: +++ (+++ = 90-100% control at 100 ppm)
GRAY MOLD [2]: - (- = 0-19% control at 400 ppm)
pathogen against which compound demonstrated activity in field tests [3]: Plasmopara viticola
LEAF BLOT [4]: ++ (++ = 90-100% control at 400 ppm)
mortality at 200 ppm [5]: 100%
mortality at 400 ppm [5]: 50%
DOWN MDEW [6]: + (+ = 20-89% control at 400 ppm)
pathogen against which compound demonstrated activity in field tests [7]: Phytophthora infestans
mortality at 12 ppm [8]: 0%
mortality at 24 ppm [8]: 0%
mortality at 200 ppm [9]: 100%
mortality at 400 ppm [9]: 100%
mortality at 200 ppm [10]: 20%
mortality at 400 ppm [10]: 0%
POWD MDEW [11]: +++ (+++ = 90-100% control at 100 ppm)
LEAF RUST [12]: +++ (+++ = 90-100% control at 100 ppm)
RICE BLAST [13]: +++ (+++ = 90-100% control at 100 ppm)
LEAF SPOT [14]: +++ (+++ = 90-100% control at 100 ppm)

c1ccc(-c2ccc(CCNc3ncnc4ccccc34)cc2)cc1 [Example 106, N-[2-(1,1'-biphenyl)-4-ylethyl]-4-quinazolinamine]
APPL SCAB [1]: +++ (+++ = 90-100% control at 100 ppm)
GRAY MOLD [2]: - (- = 0-19% control at 400 ppm)
LEAF BLOT [4]: +++ (+++ = 90-100% control at 100 ppm)
mortality at 200 ppm [5]: 100%
mortality at 400 ppm [5]: 80%
DOWN MDEW [6]: +++ (+++ = 90-100% control at 100 ppm)
mortality at 12 ppm [8]: 0%
mortality at 24 ppm [8]: 0%
mortality at 200 ppm [9]: 0%
mortality at 400 ppm [9]: 80%
mortality at 200 ppm [10]: 90%
mortality at 400 ppm [10]: 80%
POWD MDEW [11]: +++ (+++ = 90-100% control at 100 ppm)
LEAF RUST [12]: +++ (+++ = 90-100% control at 100 ppm)
RICE BLAST [13]: +++ (+++ = 90-100% control at 100 ppm)
LEAF SPOT [14]: + (+ = 20-89% control at 400 ppm)

c1ccc(-c2ccc(CCOc3ncnc4ccccc34)cc2)cc1 [Example 85, 4-[2-(1,1'-biphenyl)-4-ylethoxy]quinazoline]
APPL SCAB [1]: - (- = 0-19% control at 400 ppm)
GRAY MOLD [2]: - (- = 0-19% control at 400 ppm)
LEAF BLOT [4]: +++ (+++ = 90-100% control at 100 ppm)
mortality at 200 ppm [5]: 100%
mortality at 400 ppm [5]: 100%
DOWN MDEW [6]: +++ (+++ = 90-100% control at 100 ppm)
mortality at 12 ppm [8]: 0%
mortality at 24 ppm [8]: 0%
mortality at 200 ppm [9]: 100%
mortality at 400 ppm [9]: 100%
mortality at 200 ppm [10]: 10%
mortality at 400 ppm [10]: 80%
POWD MDEW [11]: ++ (++ = 90-100% control at 400 ppm)
mite or insect species against which they showed activity in field trials ([15]; plant: alfalfa (Lucerne)): pea aphid
mite or insect species against which they showed activity in field trials ([15]; plant: pea, garden (English)): pea aphid
mite or insect species against which they showed activity in field trials [16]: apple aphid
mite or insect species against which they showed activity in field trials [17]: grape thrips
mite or insect species against which they showed activity in field trials [18]: rosy apple aphid
mite or insect species against which they showed activity in field trials ([19]; plant: apples): green peach aphid
mite or insect species against which they showed activity in field trials ([19]; plant: sugar beet): green peach aphid
mite or insect species against which they showed activity in field trials [20]: apple rust mite
mite or insect species against which they showed activity in field trials [21]: wheat aphid
mite or insect species against which they showed activity in field trials [22]: Dawson-hop aphid
mite or insect species against which they showed activity in field trials [23]: green cloverworm
mite or insect species against which they showed activity in field trials [24]: European red mite
mite or insect species against which they showed activity in field trials [25]: potato leafhopper
mite or insect species against which they showed activity in field trials [26]: yellow hickory aphid
mite or insect species against which they showed activity in field trials [27]: greenhouse thrips
mite or insect species against which they showed activity in field trials [28]: black citrus aphid
mite or insect species against which they showed activity in field trials [29]: thrips
mite or insect species against which they showed activity in field trials ([30]; plant: azaleas): twospotted spider mite
mite or insect species against which they showed activity in field trials ([30]; plant: broccoli): twospotted spider mite
mite or insect species against which they showed activity in field trials ([30]; plant: plum (Japanese)): twospotted spider mite
mite or insect species against which they showed activity in field trials [31]: cotton aphid
mite or insect species against which they showed activity in field trials [32]: cereal aphid
mite or insect species against which they showed activity in field trials [33]: bean aphid
mite or insect species against which they showed activity in field trials [34]: potato aphid
mite or insect species against which they showed activity in field trials [35]: white apple leafhopper
activity against glasshouse whitefly in field trials [36]: showing activity
mite or insect species against which they showed activity in field trials [37]: grape leafhopper
mite or insect species against which they showed activity in field trials [38]: tarnished plant bug
LEAF RUST [12]: +++ (+++ = 90-100% control at 100 ppm)
RICE BLAST [13]: + (+ = 20-89% control at 400 ppm)
LEAF SPOT [14]: - (- = 0-19% control at 400 ppm)

CC(=O)N(CCc1ccc2ccccc2c1)c1ncnc2ccccc12 [Example 81, N-[2-(2-naphthyl)ethyl]-N-4-quinazolinylacetamide]
APPL SCAB [1]: + (+ = 20-89% control at 400 ppm)
GRAY MOLD [2]: - (- = 0-19% control at 400 ppm)
LEAF BLOT [4]: - (- = 0-19% control at 400 ppm)
mortality at 200 ppm [5]: 50%
mortality at 400 ppm [5]: 0%
DOWN MDEW [6]: + (+ = 20-89% control at 400 ppm)
mortality at 12 ppm [8]: 0%
mortality at 24 ppm [8]: 0%
mortality at 200 ppm [9]: 0%
mortality at 400 ppm [9]: 0%
mortality at 200 ppm [10]: 0%
mortality at 400 ppm [10]: 0%
POWD MDEW [11]: + (+ = 20-89% control at 400 ppm)
LEAF RUST [12]: + (+ = 20-89% control at 400 ppm)
RICE BLAST [13]: ++ (++ = 90-100% control at 400 ppm)
LEAF SPOT [14]: - (- = 0-19% control at 400 ppm)

c1ccc(CCCc2ncnc3ccccc23)cc1 [Example 29, 4-(3-phenylpropyl)quinazoline]
APPL SCAB [1]: + (+ = 20-89% control at 400 ppm)
GRAY MOLD [2]: - (- = 0-19% control at 400 ppm)
LEAF BLOT [4]: - (- = 0-19% control at 400 ppm)
mortality at 400 ppm [5]: 80%
DOWN MDEW [6]: ++ (++ = 90-100% control at 400 ppm)
mortality at 24 ppm [8]: 0%
mortality at 400 ppm [9]: 80%
mortality at 400 ppm [10]: 0%
POWD MDEW [11]: + (+ = 20-89% control at 400 ppm)
LEAF RUST [12]: ++ (++ = 90-100% control at 400 ppm)
RICE BLAST [13]: +++ (+++ = 90-100% control at 100 ppm)
LEAF SPOT [14]: - (- = 0-19% control at 400 ppm)

Cc1ccc(CCNc2nc(NCCc3ccc(C)cc3)c3ccccc3n2)cc1 [Example 28, N,N'-bis[2-(4-methylphenyl)ethyl]-2,4-quinazolinediamine]
APPL SCAB [1]: - (- = 0-19% control at 400 ppm)
GRAY MOLD [2]: - (- = 0-19% control at 400 ppm)
LEAF BLOT [4]: - (- = 0-19% control at 400 ppm)
mortality at 200 ppm [5]: 0%
DOWN MDEW [6]: + (+ = 20-89% control at 400 ppm)
mortality at 12 ppm [8]: 0%
mortality at 200 ppm [9]: 0%
mortality at 200 ppm [10]: 0%
POWD MDEW [11]: - (- = 0-19% control at 400 ppm)
LEAF RUST [12]: ++ (++ = 90-100% control at 400 ppm)
RICE BLAST [13]: + (+ = 20-89% control at 400 ppm)
LEAF SPOT [14]: - (- = 0-19% control at 400 ppm)
